The values that follow come from patent US4122274A, “3-Tetrazolo-5,6,7,8-substituted-pyrido[1,2-a]pyrimidin-4-ones” (priority 1977, dated 1978).

Where two headings read alike, the source gives them in different places. Where only a bound is given, the exact number is not on record here.

The test system of series [1] is rat Passive Cutaneous Anaphylaxis (PCA) response. Briefly: reagin-mediated rat Passive Cutaneous Anaphylaxis (PCA) screening test. Format: in vivo, rat (Sprague-Dawley). The protocol:
The reagin-mediated rat Passive Cutaneous Anaphylaxis (PCA) screening test used to evaluate the present compounds is generally regarded as one of the best animal models for use in predicting the antiallergy activity of test compounds in man. Briefly, the method consists of passive sensitization of skin sites on the test animals with reaginic antibodies followed after 24 hours by administration of the test drug and antigen challenge. The allergic response is measured by use of Evans' blue dye and is evaluated by the spot diameter at the injection site. Details of the test are provided below.
A substituted ovalbumin antigen is used both as immunogen and challenging antigen. The antigen is prepared as follows: 500 mg. ovalbumin (EA) and 500 mg. K2 CO3 are dissolved in 25 ml. distilled H2 O and stirred at room temperature for 5 minutes. Five hundred (500) mg. dinitrobenzene sulfonic acid, Na^+ salt, (previously recrystallized from hot absolute ethanol) is then added slowly with continued stirring. The reaction mixture is then immediately placed in the dark and allowed to proceed for 2 hours with constant stirring. After 2 hours the mixture is placed in suitable dialysis tubing and dialyzed against 5 changes (4 liters each) of distilled H2 O at 5° C. After dialysis the product is lyophilized and stored at room temperature in a brown or amber container. The antigen obtained will appear as a light yellow, amorphous solid which is very soluble in water or saline. It is designated as DNP denatured ovalbumin (DNP-d EA).
Adult, male Sprague-Dawley rats are used as a source of reagin-rich antisera for the PCA model. Immunization is by a combination of DNP-d EA on Al(OH)3 gel and B. pertussis vaccine. Preparation of the DNP-d EA-gel immunogen is as follows: Dissolve the DNP-d EA in TBS so as to give a concentration of 10 mg./ml. Slowly add 1 ml. of this solution to 10 ml. Al(OH)3 gel (10 mg. solids/ml.) with constant stirring at room temperature. Stir the mixture an additional 30 minutes to insure a uniform adsorption of antigen on gel.
The resulting preparation is then used in combination with phase I B. pertussis vaccine to immunize male S/D rats as follows: For each rat administer 0.1 ml. DNP-d EA-gel suspension intramuscularly in each hind leg (200 μg DNP-d EA and 2 mg. gel total dose). Follow these injections by the intraperitoneal administration of 1.0 ml. B. pertussis vaccine (10-20 × 10^9 organisms). The use of light ether anesthesia during this procedure is recommended to insure proper intramuscular and intraperitoneal injections. Nine days following immunization (but no longer than 10) the animals are exsanguinated by cardiac puncture or abdominal aorta cannulation under ether or pentobarbital anesthesia. The collected whole blood is allowed to clot, the serum separated by centrifugation and the individual serum samples stored frozen until assayed for IgE content.
Individual serum samples should be screened for reaginic antibody concentration before being pooled with other sera, as not all rats respond to immunization procedures with reagin production. A 1:50 saline dilution of serum from each immunized rat is used for this purpose. Intradermal injections of 0.05 ml. of the diluted sera are made in the shaven backs of two small female recipient rats, 100-120 gms. Several serum samples can be tested simultaneously in recipient animals. After a 24 to 48 hour latent period antigen challenge is accomplished by intravenous administration to each rat of 1 mg. DNP-d EA in 0.5 ml. of 0.5% Evans' blue dye in saline. Sera which show positive PCA reactions at the 1:50 dilution, as measured 20 to 30 minutes post-challenge are pooled, dispensed in small aliquots and stored at -70° C. or lower until used. Negative sera may be discarded.
The IgE titer of the antisera pool should then be determined. […]

The conditions of series [2]: treatment of bronchial asthma; cited from earlier work.
Series [3] concerns release of mediators, e.g. histamine and SRS-A. To be noted: administered to asthmatic patients prior to inhalation of specific antigens; cited from earlier work.
The conditions of series [4]: must be administered by inhalation; cited from earlier work.
The mark [5] stands for this setting: po, 10 min prior to antigen challenge, read-out: ID50 (dose of compound that inhibits 50% of the response), p.o.
[6] abbreviates: iv, test compounds given 1-5 min prior to antigen challenge, DSCG at time of challenge, read-out: ID50 (dose of compound that inhibits 50% of the response), i.v.

With `CCc1cccn2c(=O)c(-c3nnn[nH]3)cnc12` [Example 12, 9-Ethyl-3-(1H-tetrazol-5-yl)-4H-pyrido[1,2-a]pyrimidin-4-one], the ED50 in series [1] (setting [5]) is about 0.0033 mg/kg.

Take `Cc1ccn2c(=O)c(-c3nnn[nH]3)cnc2c1` [Example 5, 8-Methyl-3-(1H-tetrazol-5-yl)-4H-pyrido[1,2-a]pyrimidin-4-one]: the ED50 in series [1] (setting [5]) came to 2.4 mg/kg.

`O=c1c(-c2nnn[nH]2)cnc2ccc(-c3ccccc3)cn12` [Example 8, 7-Phenyl-3-(1H-tetrazol-5-yl)-4H-pyrido[1,2-a]pyrimidin-4-one]: the ED50 in series [1] (setting [5]) was 0.05 mg/kg.

With `Cc1cc(C)c2ncc(-c3nnn[nH]3)c(=O)n2c1` [Example 11, 7,9-Dimethyl-3-(1H-tetrazol-5-yl)-4H-pyrido[1,2-a]pyrimidin-4-one], the ED50 in series [1] (setting [5]) came out at 0.014 mg/kg.

Take `O=c1c(-c2nnn[nH]2)cnc2ccc(Cl)cn12` [Example 9, 7-Chloro-3-(1H-tetrazol-5-yl)-4H-pyrido[1,2-a]pyrimidin-4-one]: the ED50 in series [1] (setting [5]) is about 0.07 mg/kg.

Regarding `O=c1c(-c2nnn[nH]2)cnc2ccccn12` [Example 1, 3-(1H-Tetrazol-5-yl)-4H-pyrido[1,2-a]pyrimidin-4-one], the ED50 in series [1] (setting [6]) is 0.06 mg/kg; in series [1] (setting [5]), about 0.1 mg/kg.

For the compound `CCc1ccc2ncc(-c3nnn[nH]3)c(=O)n2c1` [Example 6, 7-Ethyl-3-(1H-tetrazol-5-yl)-4H-pyrido[1,2-a]pyrimidin-4-one], the ED50 in series [1] (setting [5]) turned out to be 0.04 mg/kg.

With `CN1[C@@H]2CC[C@H]1C[C@@H](OC(=O)C(CO)c1ccccc1)C2` (stereo partly drawn) [atropine], the side effects result in series [2] was “cardiac stimulation and gastrointestinal distress”.

On to `O=C(O)c1cc(=O)c2c(OCC(O)COc3cccc4oc(C(=O)O)cc(=O)c34)cccc2o1` [DSCG, Disodium cromoglycate, reference compound], for which the “inhibition of release of mediators, e.g. histamine and SRS-A” value in series [3] is listed as “inhibits the release of mediators”. Moreover, the ED50 in series [1] (setting [6]) is about 0.6 mg/kg; in series [1] (setting [5]), over 30 mg/kg. The oral absorption result in series [4] is given as “not orally absorbed”.

Turning to `CNC[C@H](O)c1ccc(O)c(O)c1` [epinephrine], the side effects entry in series [2] is “cardiac stimulation and gastrointestinal distress”.

On to `Cc1cccn2c(=O)c(-c3nnn[nH]3)cnc12` [Example 10, 9-Methyl-3-(1H-tetrazol-5-yl)-4H-pyrido[1,2-a]pyrimidin-4-one], for which the ED50 in series [1] (setting [5]) worked out at 0.0066 mg/kg.

For the compound `CCCCc1ccc2ncc(-c3nnn[nH]3)c(=O)n2c1` [Example 7, 7-n-Butyl-3-(1H-tetrazol-5-yl)-4H-pyrido[1,2-a]pyrimidin-4-one], the ED50 in series [1] (setting [5]) is about 0.1 mg/kg.

Consider `CC(C)NCC(O)c1ccc(O)c(O)c1` (stereo not drawn) [isoproterenol], for which, in series [2], the side effects result is “cardiac stimulation and gastrointestinal distress”.

In the case of `Cc1ccc2ncc(-c3nnn[nH]3)c(=O)n2c1` [Example 4, 7-Methyl-3-(1H-tetrazol-5-yl)-4H-pyrido[1,2-a]pyrimidin-4-one], the ED50 in series [1] (setting [5]) was about 0.1 mg/kg.
